Values after ≈ are worked out from the molar mass of the structure shown. Values joined by “and” are separate entries in the source; they are usually repeats but may differ in a detail not shown here. Equal values may be shown once. Read-outs that look alike come from different tables or passages of the source.
Key:
A. fumigatus ATCC 204305 = test: MIC with and without BSA supplementation, quality control strain; conditions: Aspergillus fumigatus
Protocol: (§1) Conidia were added across the plate to a final concentration of 1 × 10^5 ml^−1. […] Determination of antifungal activity against 50 A. fumigatus clinical isolates from St. Louis Hospital (Paris, France) was performed with 96-well plates, using the modified EUCAST method in the presence of 0.5% BSA as described above. Antifungal susceptibility testing of 46 A. fumigatus isolates (obtained from the NW England Mycology Reference Centre) was performed by Evotec UK Ltd. (Manchester, United Kingdom) according to EUCAST guidelines.

[1] = system: Candida glabrata (ATCC 36583, R363); test: MIC, CLSI; type: cell-based; conditions: Nakaseomyces glabratus, ATCC36583, read-out: MIC (the MIC given is the MIC50)
[2] = system: Chaetomium globosum (ATCC 44699); test: MIC, CLSI; type: cell-based; conditions: ATCC44699, 1 strain
[3] = system: Cladosporium argillaceum (ATCC 38013); test: MIC, CLSI; type: cell-based; conditions: Rhizocladosporium argillaceum, ATCC38013, 1 strain
[4] = system: Rhizomucor pusillus (ATCC 16458); test: MIC, CLSI; type: cell-based; conditions: ATCC16458, 1 strain
A. fumigatus (NCPF2010) = test: A. fumigatus cell-based ergosterol assay; set-up: species or system Aspergillus fumigatus; conditions: Aspergillus fumigatus; NCPF2010, 24 h, normalized by crystal violet; read-out: IC50, inhibition of ergosterol production
Protocol: After incubation for 24 h at 35°C, medium was removed from all wells and replaced with reaction buffer (Amplex red cholesterol assay kit; Thermo Fisher) and Amplex red solution. Plates were incubated for 30 min at 37°C, protected from light, after which fluorescence was quantified using a spectrophotometer. Medium was removed from all wells and replaced with crystal violet solution (1% [vol/vol]), and plates were incubated at room temperature on a shaker for 30 min. Plates were washed three times with phosphate-buffered saline (PBS), and sodium dodecyl sulfate solution (0.1% [vol/vol]) was added across the plate to lyse the cells. After incubation at room temperature for 1 h, the absorbance was measured by determining the OD590 by use of a spectrophotometer.

[5] = system: Aspergillus niger (ATCC 1015); test: MIC, EUCAST; type: cell-based; conditions: ATCC1015
[6] = system: BEAS2B cells infected with A. fumigatus; test: Persistence of action on bronchial epithelial cells (galactomannan in supernatant); type: cell-based, Aspergillus fumigatus; conditions: for IC50: Aspergillus fumigatus, BEAS-2B
Protocol: The persistence of action of test agents was evaluated on immortalized bronchial epithelial cells (BEAS2B cells). […] Test and reference articles or undiluted DMSO (as vehicle) (0.5 μl/well) was added to the appropriate wells of the washout plate to give a final concentration of 0.5% DMSO. The plate was incubated for exactly 1 h at 37°C and 5% CO2. After the incubation time had elapsed, all wells on the washout plate were aspirated, and growth medium (100 μl/well) was added across the plate. After 24 h of incubation at 37°C, test and reference articles or undiluted DMSO (as vehicle) (0.5 μl/well) was added to the appropriate wells of the nonwashout plate to give a final concentration of 0.5% DMSO. The plate was incubated for exactly 1 h at 37°C and 5% CO2, after which A. fumigatus conidia were added across both plates to a final concentration of 1 × 10^3/well.

[7] = system: Penicillium citrinum (ATCC 9849); test: MIC, CLSI; type: cell-based; conditions: ATCC9849, 1 strain
[8] = system: Trichophyton rubrum (ATCC 10218); test: MIC, CLSI; type: cell-based; conditions: ATCC10218, 1 strain
[9] = system: Aspergillus flavus (AFL8, NRRC3357); test: MIC, EUCAST; type: cell-based
[10] = Precipitation in EUCAST medium; type: physicochemical
[11] = system: Candida albicans (20240.047, ATCC 10231); test: MIC, CLSI; type: cell-based; conditions: ATCC10231, read-out: MIC (the MIC given is the MIC50)
[12] = system: Gibberella zeae (Fusarium graminearum) (ATCC 16106); test: microbe, parasite or virus in culture; type: cell-based; conditions: ATCC16106
[13] = system: Aspergillus carbonarius (ATCC 8740); test: MIC, CLSI; type: cell-based; conditions: ATCC8740
[14] = system: Rhizopus oryzae (ATCC 11145); test: MIC, CLSI; type: cell-based
[15] = system: Aspergillus terreus (AT49, AT7130); test: MIC, EUCAST; type: cell-based
[16] = system: Penicillium chrysogenum (ATCC 9480); test: MIC, CLSI; type: cell-based; conditions: ATCC9480, 1 strain
[17] = system: A. fumigatus hyphae (NCPF2010); test: Persistence of action on A. fumigatus hyphae (resazurin-based microtiter assay); conditions: Aspergillus fumigatus, NCPF2010, 16 h, read-out: Hyphae IC50, No washout
Protocol: (§2) The persistence of action of test agents was calculated for A. fumigatus hyphae (NCPF2010). […] The plates were incubated for exactly 20 min at 35°C and 5% CO2. After the incubation time had elapsed, all wells on the designated washout plate were aspirated, and growth medium (100 μl/well) was added across the plate. […] Resazurin (0.04%; diluted in growth medium) was added to all wells of both nonwashout and washout plates (5 μl/well) to give a final concentration of 0.002% resazurin. The plates were incubated at 35°C and 5% CO2 for 16 h. […] The percent inhibition for each well was calculated, and the IC50 was calculated from the concentration-response curve generated for each test compound by use of a four-parameter logistic equation (Dotmatics, Bishops Stortford, United Kingdom).

[18] = system: Aspergillus flavus (ATCC 204304); test: MIC, CLSI; type: cell-based; conditions: ATCC204304
[19] = system: AR Candida albicans (20183.073, 20186.025); test: MIC, CLSI; type: cell-based; conditions: read-out: MIC (the MIC given is the MIC50)
[20] = system: Cryptococcus neoformans (ATCC 24067); test: MIC, CLSI; type: cell-based; conditions: Cryptococcus neoformans, ATCC24067
[21] = system: A. fumigatus hyphae (NCPF2010)
Protocol: as §2

[22] = system: Aureobasidium pullulans (ATCC 9348); test: MIC, CLSI; type: cell-based; conditions: ATCC9348, 1 strain
[23] = system: Mucor circinelloides (ATCC 8542); test: MIC, CLSI; type: cell-based; conditions: ATCC8542, 1 strain
[24] = system: Candida krusei (ATCC 6258); test: MIC, CLSI; type: cell-based; conditions: Pichia kudriavzevii, ATCC6258
[25] = system: Lichtheimia corymbifera (ATCC 7909); test: MIC, CLSI; type: cell-based; conditions: ATCC7909, 1 strain
[26] = system: 96 clinically isolated A. fumigatus strains; test: MIC against 96 clinically isolated strains (EUCAST, visual)
Protocol: as §1

C[C@@H]1[C@H](O)[C@@H](C)/C=C/C=C/C=C/C=C/C=C/C=C/C=C/[C@H](O[C@@H]2O[C@H](C)[C@@H](O)[C@H](N)[C@@H]2O)C[C@@H]2O[C@](O)(C[C@@H](O)C[C@@H](O)[C@H](O)CC[C@@H](O)C[C@@H](O)CC(=O)O[C@H]1C)C[C@H](O)[C@H]2C(=O)O [Amphotericin B, amphotericin B]
MIC (A. fumigatus ATCC 204305; ATCC204305, with BSA): 2 µg/mL (≈ 2.16 µM)
MIC (A. fumigatus ATCC 204305; ATCC204305, without BSA): 1 µg/mL (≈ 1.08 µM)

CCC(C)n1ncn(-c2ccc(N3CCN(c4ccc(OCC5COC(Cn6cncn6)(c6ccc(Cl)cc6Cl)O5)cc4)CC3)cc2)c1=O (stereo not shown) [Itraconazole, itraconazole]
MIC (A. fumigatus ATCC 204305; ATCC204305, with BSA): 0.125 µg/mL (≈ 0.177 µM)
MIC (A. fumigatus ATCC 204305; ATCC204305, without BSA): 0.25 µg/mL (≈ 0.354 µM)

C[C@@H](c1ncncc1F)[C@](O)(Cn1cncn1)c1ccc(F)cc1F [Voriconazole, voriconazole]
MIC50 [1]: 8.13 µg/mL (≈ 23.3 µM)
MIC [2]: 1 µg/mL (≈ 2.86 µM)
MIC [3]: 0.5 µg/mL (≈ 1.43 µM)
MIC [4]: > 8 µg/mL
IC50 (A. fumigatus (NCPF2010)): 0.067 µg/mL and 190 nM
MIC [5]: 1 µg/mL (≈ 2.86 µM)
BEAS2B cells IC50, Washout ([6]; 1 h contact, 24-h washout prior to infection, GM readout): ineffective
IC50 ([6]; 1 h contact before infection, GM readout after 24 h, read-out: BEAS2B cells IC50, No washout): 0.054 µg/mL (≈ 0.155 µM)
IC50 ([6]; 1 h contact, 24-h washout prior to infection, GM readout, read-out: BEAS2B cells IC50, Washout): > 1 µg/mL
MIC [7]: > 8 µg/mL
MIC [8]: 0.063 µg/mL (≈ 0.18 µM)
MIC [9]: 0.63 µg/mL (≈ 1.8 µM)
concentration at which compound precipitated in EUCAST medium [10]: did not
MIC50 [11]: 0.14 µg/mL (≈ 0.401 µM)
MIC [12]: > 8 µg/mL
MIC [13]: 0.5 µg/mL (≈ 1.43 µM)
MIC ([14]; 1 strain): >8 µg/mL
MIC ([14]; Rhizopus arrhizus, ATCC11145, 1 strain, read-out: MIC): > 8 µg/mL
MIC [15]: 1 µg/mL (≈ 2.86 µM)
MIC [16]: 2 µg/mL (≈ 5.73 µM)
IC50 [17]: 0.011 µg/mL (≈ 0.0315 µM)
MIC [18]: 2 µg/mL (≈ 5.73 µM)
MIC50 [19]: 10 µg/mL (≈ 28.6 µM)
MIC [20]: 0.016 µg/mL (≈ 0.0458 µM)
IC50 [21]: > 1 µg/mL
MIC [22]: > 8 µg/mL
MIC [23]: > 8 µg/mL
MIC [24]: 0.25 µg/mL (≈ 0.716 µM)
MIC [25]: > 8 µg/mL
MIC, Range ([26]; 96 clinical isolates, determined visually): 0.064 to 4 µg/mL
MIC50 ([26]; Aspergillus fumigatus): 0.5 µg/mL (≈ 1.43 µM)
MIC90 ([26]; Aspergillus fumigatus): 1 µg/mL (≈ 2.86 µM)
MIC ([26]; Aspergillus fumigatus, read-out: MIC, Geometric mean): 0.42 µg/mL (≈ 1.2 µM)
MIC ([26]; Aspergillus fumigatus, read-out: MIC, Mode): 0.5 µg/mL (≈ 1.43 µM)
MIC (A. fumigatus ATCC 204305; ATCC204305, with BSA): 1 to 2 µg/mL (≈ 2.86 to 5.73 µM)
MIC (A. fumigatus ATCC 204305; ATCC204305, without BSA): 2 µg/mL (≈ 5.73 µM)
